According to patent publication US20170101383A1, “DIAMINOTRIAZINE DERIVATIVES AS HERBICIDES” (BASF SE, priority 2014, published 2017):

Legend:
[1] = tested on: Setaria viridis; experiment: greenhouse post-emergence treatment, SETVI; assay type: in vivo; settings: 0.500 kg/ha, scale 0 to 100
Excerpt: (§1) The seeds of the test plants were sown separately for each species. For the post-emergence treatment, the test plants were first grown to a height of 3 to 15 cm, depending on the plant habit, and only then treated with the active ingredients which had been suspended or emulsified in water. For this purpose, the test plants were either sown directly and grown in the same containers, or they were first grown separately as seedlings and transplanted into the test containers a few days prior to treatment. Depending on the species, the plants were kept at 10-25° C. or 20-35° C., respectively. The test period extended over 2 to 4 weeks. During this time, the plants were tended, and their response to the individual treatments was evaluated. Evaluation was carried out using a scale from 0 to 100. 100 means no emergence of the plants, or complete destruction of at least the aerial moieties, and 0 means no damage, or normal course of growth. A moderate herbicidal activity is given at values of at least 60, a good herbicidal activity is given at values of at least 70, and a very good herbicidal activity is given at values of at least 85. The plants used in the greenhouse experiments were of the following species: [table]

[2] = tested on: Alopecurus myosuroides; experiment: greenhouse pre-emergence treatment, ALOMY; assay type: in vivo; settings: scale 0 to 100
Excerpt: (§2) The seeds of the test plants were sown separately for each species. For the pre-emergence treatment, the active ingredients, which had been suspended or emulsified in water, were applied directly after sowing by means of finely distributing nozzles. The containers were irrigated gently to promote germination and growth and subsequently covered with transparent plastic hoods until the plants had rooted. This cover caused uniform germination of the test plants, unless this had been impaired by the active ingredients. Depending on the species, the plants were kept at 10-25° C. or 20-35° C., respectively. The test period extended over 2 to 4 weeks. During this time, the plants were tended, and their response to the individual treatments was evaluated. Evaluation was carried out using a scale from 0 to 100. 100 means no emergence of the plants, or complete destruction of at least the aerial moieties, and 0 means no damage, or normal course of growth. A moderate herbicidal activity is given at values of at least 60, a good herbicidal activity is given at values of at least 70, and a very good herbicidal activity is given at values of at least 85. The plants used in the greenhouse experiments were of the following species: [table]

[3] = tested on: Echinocloa crus-galli; experiment: greenhouse post-emergence treatment, ECHCG; assay type: in vivo; settings: scale 0 to 100
Excerpt: as §1

[4] = tested on: Apera spica-venti; experiment: greenhouse pre-emergence treatment, APESV; assay type: in vivo; settings: scale 0 to 100
Excerpt: as §2

[5] = tested on: Polygonum convolvulus; experiment: greenhouse post-emergence treatment, POLCO; assay type: in vivo; settings: 0.500 kg/ha, scale 0 to 100
Excerpt: as §1

[6] = tested on: Amaranthus retroflexus; experiment: greenhouse pre-emergence treatment, AMARE; assay type: in vivo; settings: scale 0 to 100
Excerpt: as §2

[7] = tested on: Setaria faberi; experiment: greenhouse post-emergence treatment, SETFA; assay type: in vivo; settings: scale 0 to 100
Excerpt: as §1

[8] = tested on: Amaranthus retroflexus; experiment: greenhouse post-emergence treatment, AMARE; assay type: in vivo; settings: for herbicidal activity against AMARE / pest or weed control at 500 g/ha: 0.500 kg/ha; for herbicidal activity against AMARE: scale 0 to 100
Excerpt: as §1

[9] = tested on: Echinocloa crus-galli; experiment: greenhouse pre-emergence treatment, ECHCG; assay type: in vivo; settings: 0.500 kg/ha, scale 0 to 100
Excerpt: as §2

[10] = tested on: Abutilon theophrasti; experiment: greenhouse pre-emergence treatment, ABUTH; assay type: in vivo; settings: 0.500 kg/ha, scale 0 to 100
Excerpt: as §2

[11] = tested on: Apera spica-venti; experiment: greenhouse post-emergence treatment, APESV; assay type: in vivo; settings: 0.500 kg/ha, scale 0 to 100
Excerpt: as §1

[12] = tested on: Setaria faberi; experiment: greenhouse pre-emergence treatment, SETFA; assay type: in vivo; settings: 0.500 kg/ha, scale 0 to 100
Excerpt: as §2

[13] = tested on: Abutilon theophrasti; experiment: greenhouse post-emergence treatment, ABUTH; assay type: in vivo; settings: 0.500 kg/ha, scale 0 to 100
Excerpt: as §1

[14] = known from Archiv der Pharmazie, 1984, Vol. 317, S. 754; cited from earlier work
[15] = Amaranthus retroflexus, scale 0 to 100, read-out: herbicidal activity against AMARE

Structure (SMILES) | herbicidal activity against APESV ([4]; 0.500 kg/ha) | herbicidal activity against AMARE ([6]; 0.500 kg/ha) | herbicidal activity against ABUTH [10] | herbicidal activity against SETFA ([7]; 0.500 kg/ha) | herbicidal activity against ALOMY ([2]; 0.500 kg/ha) | herbicidal activity against APESV [11] | herbicidal activity against SETFA [12] | pest or weed control at 500 g/ha [8, 15] [%] | herbicidal activity against ABUTH [13] | further results
COc1nc(N)nc(Nc2c(F)c(F)c(F)c(F)c2F)n1 [Example 2, 6-methoxy-N2-(2,3,4,5,6-pentafluorophenyl)-1,3,5-triazine-2,4-diamine] | – | – | – | – | – | – | – | – | – | herbicidal activity against SETVI [1]: very good (a very good herbicidal activity is given at values of at least 85); herbicidal activity against ALOMY ([2]; 0.125 kg/ha): good to very good; herbicidal activity against ECHCG ([3]; 0.500 kg/ha): very good (a very good herbicidal activity is given at values of at least 85); herbicidal activity against APESV ([4]; 0.125 kg/ha): good to very good; herbicidal activity against POLCO [5]: very good (a very good herbicidal activity is given at values of at least 85); herbicidal activity against AMARE ([6]; 0.125 kg/ha): good to very good
Nc1nc(Nc2c(F)c(F)c(F)c(F)c2F)nc(N2CCCCC2)n1 [Example 5] | – | – | – | – | – | – | – | – | – | herbicidal activity against SETFA ([7]; 1.000 kg/ha): very good (a very good herbicidal activity is given at values of at least 85); herbicidal activity against ALOMY ([2]; 1.000 kg/ha): very good (a very good herbicidal activity is given at values of at least 85); herbicidal activity against ECHCG ([3]; 1.000 kg/ha): very good (a very good herbicidal activity is given at values of at least 85); pest or weed control at 1000 g/ha ([8]; Amaranthus retroflexus, 1.000 kg/ha, scale 0 to 100, read-out: herbicidal activity against AMARE): ≥ 85%; herbicidal activity against APESV ([4]; 1.000 kg/ha): very good (a very good herbicidal activity is given at values of at least 85); herbicidal activity against AMARE ([6]; 1.000 kg/ha): very good (a very good herbicidal activity is given at values of at least 85)
CC1CCC(C)N1c1nc(N)nc(Nc2c(F)c(F)cc(F)c2F)n1 (centres unmarked) [Example 18] | very good (a very good herbicidal activity is given at values of at least 85) | very good (a very good herbicidal activity is given at values of at least 85) | – | – | – | – | – | – | – | herbicidal activity against ECHCG [9]: very good (a very good herbicidal activity is given at values of at least 85)
Nc1nc(Nc2c(F)c(F)c(F)c(F)c2F)nc(N2CCOCC2)n1 [Example 23] | very good (a very good herbicidal activity is given at values of at least 85) | very good (a very good herbicidal activity is given at values of at least 85) | very good (a very good herbicidal activity is given at values of at least 85) | – | – | – | – | – | – | –
COC[C@H]1CCCN1c1nc(N)nc(Nc2c(F)c(F)c(F)c(F)c2F)n1 [Example 25] | good to very good | good to very good | – | very good (a very good herbicidal activity is given at values of at least 85) | good to very good | very good (a very good herbicidal activity is given at values of at least 85) | good to very good | – | – | herbicidal activity against AMARE [8]: very good (a very good herbicidal activity is given at values of at least 85)
COC[C@H]1CCCN1c1nc(N)nc(Nc2c(F)c(F)cc(F)c2F)n1 [Example 26] | very good (a very good herbicidal activity is given at values of at least 85) | very good (a very good herbicidal activity is given at values of at least 85) | – | very good (a very good herbicidal activity is given at values of at least 85) | very good (a very good herbicidal activity is given at values of at least 85) | very good (a very good herbicidal activity is given at values of at least 85) | very good (a very good herbicidal activity is given at values of at least 85) | – | – | herbicidal activity against AMARE [8]: very good (a very good herbicidal activity is given at values of at least 85)
CON(C)c1nc(N)nc(Nc2c(F)c(F)c(F)c(F)c2F)n1 [Example 27] | very good (a very good herbicidal activity is given at values of at least 85) | very good (a very good herbicidal activity is given at values of at least 85) | very good (a very good herbicidal activity is given at values of at least 85) | very good (a very good herbicidal activity is given at values of at least 85) | very good (a very good herbicidal activity is given at values of at least 85) | – | very good (a very good herbicidal activity is given at values of at least 85) | ≥ 85 | very good (a very good herbicidal activity is given at values of at least 85) | –
CON(C)c1nc(N)nc(Nc2c(F)c(F)cc(F)c2F)n1 [Example 28] | very good (a very good herbicidal activity is given at values of at least 85) | very good (a very good herbicidal activity is given at values of at least 85) | very good (a very good herbicidal activity is given at values of at least 85) | very good (a very good herbicidal activity is given at values of at least 85) | very good (a very good herbicidal activity is given at values of at least 85) | – | very good (a very good herbicidal activity is given at values of at least 85) | ≥ 85 | very good (a very good herbicidal activity is given at values of at least 85) | –
COCC1CCCN1c1nc(N)nc(Nc2c(F)c(F)cc(F)c2F)n1 (centres unmarked) [Example 32] | good to very good | good to very good | – | very good (a very good herbicidal activity is given at values of at least 85) | good to very good | very good (a very good herbicidal activity is given at values of at least 85) | good to very good | ≥ 85 | – | –
Nc1nc(Nc2c(F)c(F)c(F)c(F)c2F)nc(N2CCC2)n1 [Example 33] | – | very good (a very good herbicidal activity is given at values of at least 85) | very good (a very good herbicidal activity is given at values of at least 85) | – | – | – | very good (a very good herbicidal activity is given at values of at least 85) | ≥ 85 | very good (a very good herbicidal activity is given at values of at least 85) | herbicidal activity against ECHCG ([3]; 0.500 kg/ha): very good (a very good herbicidal activity is given at values of at least 85); herbicidal activity against ECHCG [9]: very good (a very good herbicidal activity is given at values of at least 85)
Nc1nc(Nc2c(F)c(F)cc(F)c2F)nc(N2CCC2)n1 [Example 34] | – | very good (a very good herbicidal activity is given at values of at least 85) | very good (a very good herbicidal activity is given at values of at least 85) | – | – | – | very good (a very good herbicidal activity is given at values of at least 85) | ≥ 85 | very good (a very good herbicidal activity is given at values of at least 85) | herbicidal activity against ECHCG ([3]; 0.500 kg/ha): very good (a very good herbicidal activity is given at values of at least 85); herbicidal activity against ECHCG [9]: very good (a very good herbicidal activity is given at values of at least 85)
CCN(CC)c1nc(N)nc(Nc2c(F)c(F)cc(F)c2F)n1 [Example 36] | good to very good | good to very good | – | – | – | very good (a very good herbicidal activity is given at values of at least 85) | – | ≥ 85 | – | –
CC(C)Nc1nc(Nc2ccccc2F)nc(NC(C)C)n1 [N6-(2-fluorophenyl)-N2,N4-diisopropyl-1,3,5-triazine-2,4,6-triamine] | – | – | – | – | – | – | – | – | – | trichomonacidal activity [14]: shows trichomonacidal activity
